The source of these data is patent US9090874B2, “Olfactory epithelial-derived stem cells and methods of use therefor” (University of Louisville Research Foundation, Inc., priority 2008, dated 2015).

Molecules are shown by their SMILES.

For the assay, the system named is neurosphere subcultures. Nature of the assay: Exposure of neurosphere subcultures to dibutyryl cAMP. In kind it is cell-based. As to conditions: media containing 2.5 mM dibutyryl cAMP.

Take `CCCC(=O)Nc1ncnc2c1ncn2[C@@H]1O[C@@H]2COP(=O)(O)O[C@H]2[C@H]1OC(=O)CCC` [dibutyryl cAMP]: the “levels of α-internexin” value was “increases” and the mitotic activity entry is on record as “drastically decreases”.
